Experimental data taken from patent US20100249093A1, “Substituted Heteroarylpiperidine Derivatives As Melanocortin-4 Receptor Modulators” (SANTHERA PHARMACEUTICALS (SCHWEIZ) AG, priority 2007, published 2010).

Key:
[1] = biological target: T1, human melanocortin-4 receptor (MC-4R) (Homo sapiens, UniProt P32245); experiment: Membrane binding assay: competition with fluorescence labeled NDP-alpha-MSH, fluorescence polarization; settings: HEK293 cell membrane preparations expressing human MC-4R, read-out: hMC-4R binding assay IC50
T1 construct: expressed in transfected cells; host or cells: HEK293
T1 sequence (P32245 whole entry): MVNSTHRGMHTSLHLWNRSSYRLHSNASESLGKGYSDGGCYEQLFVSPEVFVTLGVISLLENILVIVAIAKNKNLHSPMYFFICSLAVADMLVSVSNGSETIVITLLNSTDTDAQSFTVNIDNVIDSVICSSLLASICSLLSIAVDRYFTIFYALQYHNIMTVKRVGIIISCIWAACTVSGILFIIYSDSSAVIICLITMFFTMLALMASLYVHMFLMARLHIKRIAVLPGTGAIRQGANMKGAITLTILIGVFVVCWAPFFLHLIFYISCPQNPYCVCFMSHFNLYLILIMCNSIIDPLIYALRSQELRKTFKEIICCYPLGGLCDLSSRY

[2] = biological target: T1, human melanocortin-4 receptor (MC-4R); experiment: Functional assay: agonistic activity, cAMP production in membrane preparations compared with NDP-alpha-MSH, fluorescence polarization; type: biochemical; settings: for Emax: cAMP produced compared to stimulation with NDP-alpha-MSH, read-out: % activation functional assay

Row | SMILES | IC50 [1] [nM] | Emax [2] [%] | EC50 ([2]; cAMP production, membrane preparations from HEK293 cells expressing human MC-4R, read-out: hMC-4R functional assay EC50) [nM]
1 | CC[C@H](COc1cccnc1C1CCN(C(=O)[C@@H](Cc2ccc(Cl)cc2Cl)NC(=O)N2CC[C@@H](F)C2)CC1)N1CCCC1 [Example 81] | ≤ 100 | 0 | 
2 | CC[C@H](COc1cccnc1C1CCN(C(=O)[C@@H](Cc2ccc(Cl)cc2Cl)NC(=O)N2CCC(F)CC2)CC1)N1CCCC1 [Example 82] | ≤ 100 | 0 | 
3 | CC[C@H](COc1cccnc1C1CCN(C(=O)[C@@H](Cc2ccc(Cl)cc2Cl)NC(=O)N2CCC(F)(F)CC2)CC1)N1CCCC1 [Example 83] | ≤ 100 | 0 | 
4 | CC[C@H](COc1cccnc1C1CCN(C(=O)[C@@H](Cc2ccc(Cl)cc2Cl)NC(=O)N2CC(O)C2)CC1)N1CCCC1 [Example 84] | ≤ 100 | 0 | 
5 | CC[C@H](COc1cccnc1C1CCN(C(=O)[C@@H](Cc2ccc(Cl)cc2Cl)NC(=O)N(CCOC)CCOC)CC1)N1CCCC1 [Example 85] | ≤ 100 | 0 | 
6 | CC[C@H](COc1cccnc1C1CCN(C(=O)[C@@H](Cc2ccc(Cl)cc2Cl)NC(=O)N(C)CCO)CC1)N1CCCC1 [Example 86] | ≤ 100 | 0 | 
7 | CC[C@H](COc1cccnc1C1CCN(C(=O)[C@@H](Cc2ccc(Cl)cc2Cl)NC(=O)N(C)CCOC)CC1)N1CCCC1 [Example 87] | ≤ 100 | 0 | 
8 | CC[C@H](COc1cccnc1C1CCN(C(=O)[C@@H](Cc2ccc(Cl)cc2Cl)NC(=O)N2CCSC2)CC1)N1CCCC1 [Example 88] | ≤ 100 | 0 | 
9 | CC[C@H](COc1cccnc1C1CCN(C(=O)[C@@H](Cc2ccc(Cl)cc2Cl)NC(=O)N2CC[C@H](O)C2)CC1)N1CCCC1 [Example 89] | ≤ 100 | 0 | 
10 | CC[C@H](COc1cccnc1C1CCN(C(=O)[C@@H](Cc2ccc(Cl)cc2Cl)NC(=O)N2CC[C@H](F)C2)CC1)N1CCCC1 [Example 90] | ≤ 100 | 0 | 
11 | CC[C@H](COc1cccnc1C1CCN(C(=O)[C@@H](Cc2ccc(Cl)cc2Cl)NC(=O)N2CCOCC2)CC1)N1CCCC1 [Example 91] | ≤ 100 | 0 | 
12 | CC[C@H](COc1cccnc1C1CCN(C(=O)[C@@H](Cc2ccc(Cl)cc2Cl)NC(=O)N2CCOC[C@@H]2C)CC1)N1CCCC1 [Example 92] | ≤ 100 | 0 | 
13 | CC[C@H](COc1cccnc1C1CCN(C(=O)[C@@H](Cc2ccc(Cl)cc2Cl)NC(=O)N2C[C@@H](C)O[C@@H](C)C2)CC1)N1CCCC1 [Example 93] | ≤ 100 | 0 | 
14 | CC[C@H](COc1cccnc1C1CCN(C(=O)[C@@H](Cc2ccc(Cl)cc2Cl)NC(=O)N2CCCO2)CC1)N1CCCC1 [Example 94] | ≤ 100 | 0 | 
15 | CC[C@H](COc1cccnc1C1CCN(C(=O)[C@@H](Cc2ccc(Cl)cc2Cl)NC(=O)N2CCC=N2)CC1)N1CCCC1 [Example 95] | ≤ 100 | 0 | 
16 | CC[C@H](COc1cccnc1C1CCN(C(=O)[C@@H](Cc2ccc(Cl)cc2Cl)NC(=O)N2CCC(O)CC2)CC1)N1CCCC1 [Example 96] | ≤ 100 | 0 | 
17 | CC[C@H](COc1cccnc1C1CCN(C(=O)[C@@H](Cc2ccc(Cl)cc2Cl)NC(=O)N2C[C@H]3C[C@H]3C2)CC1)N1CCCC1 [Example 97] | ≤ 100 | 8 | 
18 | CC[C@H](COc1cccnc1C1CCN(C(=O)[C@@H](Cc2ccc(Cl)cc2Cl)NC(=O)N2CC(OC)C2)CC1)N1CCCC1 [Example 98] | ≤ 100 | 13 | 
19 | CC[C@H](COc1cccnc1C1CCN(C(=O)[C@@H](Cc2ccc(Cl)cc2Cl)NC(=O)N2CC(C)(O)C2)CC1)N1CCCC1 [Example 99] | ≤ 100 | 0 | 

Row | SMILES | IC50 [1] [nM] | Emax [2] [%] | EC50 ([2]; cAMP production, membrane preparations from HEK293 cells expressing human MC-4R, read-out: hMC-4R functional assay EC50) [nM]
20 | CC[C@H](COc1cccnc1C1CCN(C(=O)[C@@H](Cc2ccc(Cl)cc2Cl)NC(=O)N2CC(OC(C)=O)C2)CC1)N1CCCC1 [Example 100] | ≤ 100 | -7 | 
21 | CC[C@H](COc1cccnc1C1CCN(C(=O)[C@@H](Cc2ccc(Cl)cc2Cl)NC(=O)N(C)CC)CC1)N(C)C [Example 101] | ≤ 100 | 5 | 
22 | CC[C@H](COc1cccnc1C1CCN(C(=O)[C@@H](Cc2ccc(Cl)cc2Cl)NC(=O)N2CC(O)C2)CC1)N(C)C [Example 102] | ≤ 100 | -1 | 
23 | CC[C@H](COc1cccnc1C1CCN(C(=O)[C@@H](Cc2ccc(Cl)cc2Cl)NC(=O)N2CC[C@H](O)C2)CC1)N(C)C [Example 103] | ≤ 100 | -9 | ≤ 100
24 | CC[C@H](COc1cccnc1C1CCN(C(=O)[C@@H](Cc2ccc(Cl)cc2Cl)NC(=O)N2CCC[C@H](O)C2)CC1)N(C)C [Example 105] | ≤ 100 | -3 | 
25 | CC[C@H](COc1cccnc1C1CCN(C(=O)[C@@H](Cc2ccc(Cl)cc2Cl)NC(=O)N2CCC[C@H]2CO)CC1)N(C)C [Example 106] | ≤ 100 | -1 | 
26 | CC[C@H](COc1cccnc1C1CCN(C(=O)[C@@H](Cc2ccc(Cl)cc2Cl)NC(=O)N2CCC[C@@H]2CO)CC1)N(C)C [Example 107] | ≤ 100 | -2 | 
27 | CC[C@H](COc1cccnc1C1CCN(C(=O)[C@@H](Cc2ccc(Cl)cc2Cl)NC(=O)N2CC[C@@H](OC)C2)CC1)N(C)C [Example 108] | ≤ 100 | 0 | 
28 | CC[C@H](COc1cccnc1C1CCN(C(=O)[C@@H](Cc2ccc(Cl)cc2Cl)NC(=O)N2CC[C@H](OC)C2)CC1)N(C)C [Example 109] | ≤ 100 | -11 | 
29 | CC[C@H](COc1cccnc1C1CCN(C(=O)[C@@H](Cc2ccc(Cl)cc2Cl)NC(=O)N2CCC(C)(O)C2)CC1)N(C)C (some centres unmarked) [Example 110] | ≤ 100 | 0 | 
30 | CC[C@H](COc1cccnc1C1CCN(C(=O)[C@@H](Cc2ccc(Cl)cc2Cl)NC(=O)N(C)CC(C)(C)O)CC1)N(C)C [Example 111] | ≤ 100 | -23 | 
31 | CC[C@H](COc1cccnc1C1CCN(C(=O)[C@@H](Cc2ccc(Cl)cc2Cl)NC(=O)N2CCC(C)(O)CC2)CC1)N(C)C [Example 112] | ≤ 100 | -8 | 
32 | CC[C@H](COc1cccnc1C1CCN(C(=O)[C@@H](Cc2ccc(Cl)cc2Cl)NC(=O)N2CCC[C@@H](O)C2)CC1)N(C)C [Example 113] | ≤ 100 | -14 | 
33 | CC[C@H](COc1cccnc1C1CCN(C(=O)[C@@H](Cc2ccc(Cl)cc2Cl)NC(=O)N2CC[C@H](CO)C2)CC1)N(C)C [Example 114] | ≤ 100 | -3 | 
34 | CC[C@H](COc1cccnc1C1CCN(C(=O)[C@@H](Cc2ccc(Cl)cc2Cl)NC(=O)N2CC[C@@H](CO)C2)CC1)N(C)C [Example 115] | ≤ 100 | -8 | 
35 | CC[C@H](COc1cccnc1C1CCN(C(=O)[C@@H](Cc2ccc(Cl)cc2Cl)NC(=O)N2CC[C@@H](O)C2)CC1)N(C)C [Example 116] | ≤ 100 | -1 | 
36 | CC[C@H](COc1cccnc1C1CCN(C(=O)[C@@H](Cc2ccc(Cl)cc2Cl)NC(=O)N2CC[C@H](OC(C)=O)C2)CC1)N(C)C [Example 117] | ≤ 100 | 0 | 
37 | C#CC1(O)CN(C(=O)N[C@H](Cc2ccc(Cl)cc2Cl)C(=O)N2CCC(c3ncccc3OC[C@@H](CC)N(C)C)CC2)C1 [Example 118] | ≤ 100 | 11 | 
38 | CC[C@H](COc1cccnc1C1CCN(C(=O)[C@@H](Cc2ccc(Cl)cc2Cl)NC(=O)N2CC[C@@H](OC(C)=O)C2)CC1)N(C)C [Example 120] | ≤ 100 | 5 | 
